One block for each compound: values may come before it. Calls of active or inactive are those of the source. The calls are words filed in the database; no cut-off is given here.
How the values were obtained:
[1] = MRT (0 to t) in ICR mouse at 50 mg/kg, po; assay type: ADME, organism-based; design: dose 50 mg/kg, route oral; conditions: in vivo
[2] = AUC (0 to t) in ICR mouse at 50 mg/kg, po; assay type: ADME, organism-based; design: dose 50 mg/kg, route oral; conditions: plasma
[3] = Tmax in ICR mouse at 50 mg/kg, po; assay type: ADME, organism-based; design: dose 50 mg/kg, route oral; conditions: in vivo
[4] = Cmax in ICR mouse at 50 mg/kg, po; assay type: ADME, organism-based; design: dose 50 mg/kg, route oral; conditions: in vivo
Mus musculus [5] = experiment: Hypoglycemic activity in ICR mouse assessed as reduction of blood glucose AUC (0 to 120 mins) at 50 mg/kg, po qd administered for 3 days followed by glucose challenge for 40 mins on day 3 post last dose by OGTT relative to control; assay type: functional; design: scale not given: the % may be the effect or the level left
Mus musculus [6] = experiment: Hypoglycemic activity in ICR mouse assessed as decrease in blood glucose level at 50 mg/kg, po after 4 hrs by OGTT relative to control; assay type: functional
Mus musculus [7] = experiment: Hypoglycemic activity in ICR mouse assessed as decrease in blood glucose level at 50 mg/kg, po after 2 hrs by OGTT relative to control; assay type: functional
[8] = biological target: T1, Peroxisome proliferator-activated receptor gamma (Homo sapiens) (UniProt P37231); experiment: Activation of PPAR-gamma (unknown origin) transfected in human U2OS cells assessed as increase in transcriptional activity at 10^-6 M after 24 hrs by luciferase reporter gene assay relative to rosiglitazone; assay type: cell-based
T1 sequence (whole entry): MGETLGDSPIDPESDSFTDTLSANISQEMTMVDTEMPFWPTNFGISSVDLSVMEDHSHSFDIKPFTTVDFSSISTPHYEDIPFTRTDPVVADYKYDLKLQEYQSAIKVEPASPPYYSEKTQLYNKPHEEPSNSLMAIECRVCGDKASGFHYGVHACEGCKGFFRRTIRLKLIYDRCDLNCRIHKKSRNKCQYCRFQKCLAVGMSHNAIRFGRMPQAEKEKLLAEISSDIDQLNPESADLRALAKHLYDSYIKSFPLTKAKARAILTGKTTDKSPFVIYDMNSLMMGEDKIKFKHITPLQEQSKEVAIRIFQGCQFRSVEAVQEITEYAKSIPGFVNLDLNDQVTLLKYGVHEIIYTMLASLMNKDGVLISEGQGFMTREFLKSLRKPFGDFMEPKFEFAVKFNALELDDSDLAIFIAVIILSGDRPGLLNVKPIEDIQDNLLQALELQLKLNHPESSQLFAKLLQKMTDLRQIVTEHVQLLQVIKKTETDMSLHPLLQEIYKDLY

Homo sapiens = organism: Homo sapiens; experiment: Selectivity for PPAR-gamma (unknown origin) over PPAR-alpha (unknown origin)
Mus musculus [9] = experiment: Hypoglycemic activity in ICR mouse assessed as decrease in blood glucose level at 50 mg/kg, po after 6 hrs by OGTT relative to control; assay type: functional; design: scale not given: the % may be the effect or the level left
[10] = biological target: T1, Peroxisome proliferator-activated receptor gamma (Homo sapiens); experiment: Activation of PPAR-gamma (unknown origin) transfected in human U2OS cells assessed as increase in transcriptional activity at 10^-6 M after 24 hrs by luciferase reporter gene assay; assay type: cell-based

MRT last [1]: 67.8 min
AUC(0-t) [2]: 98000 ng·h/mL
Tmax [3]: 30 min
Cmax [4]: 77.8 µg/mL
Activity [8]: > 38.8%
SMILES: CCCCCN(C(=O)Nc1nccs1)c1ccc(OC(C)(C)C(=O)O)cc1
Activity (Mus musculus [5]): 34.6%
Activity (Mus musculus [6]): Active
Activity (Mus musculus [7]): Active

Selectivity ratio (Homo sapiens): 10
SMILES: CC(C)(Oc1ccc(CCN(CC2CCCCC2)C(=O)Nc2ccc(F)cc2F)cc1)C(=O)O

SMILES: CC(C)Oc1cc(OCCc2ccsc2)cc(C(=O)Nc2ccc(C(=O)O)cn2)c1
Activity (Mus musculus [9]): 24.4%
Activity (Mus musculus [6]): 41.8%
Activity (Mus musculus [7]): 29.7%

Activity [10]: Active
SMILES: CCCN(C(=O)Nc1nc2ccc(C)cc2s1)c1ccc(OC(C)(C)C(=O)O)cc1

Activity [8]: > 38.8%
SMILES: CCCCCN(C(=O)Nc1nccs1)c1ccc(OC(C)(C)C(=O)OCC)cc1
Activity (Mus musculus [5]): 10%

Activity [8]: > 38.8%
SMILES: CCCCCN(C(=O)Nc1nc2ccc(C)cc2s1)c1ccc(OC(C)(C)C(=O)O)cc1
Activity (Mus musculus [9]): 20%
Activity (Mus musculus [6]): 22.6%

Activity [8]: > 38.8%
SMILES: C=CCN(C(=O)Nc1nccs1)c1ccc(OC(C)(C)C(=O)OCC)cc1

Activity [10]: Active
SMILES: CCOC(=O)C(C)(C)Oc1ccc(N(Cc2ccco2)C(=O)Nc2nccs2)cc1

Activity [10]: Active
SMILES: CCOC(=O)C(C)(C)Oc1ccc(N(CC=C(C)C)C(=O)Nc2nccs2)cc1

Activity [10]: Active
SMILES: CC(C)CCN(C(=O)Nc1nc2ccccc2s1)c1ccc(OC(C)(C)C(=O)O)cc1

Activity [10]: Active
SMILES: CC(C)(Oc1ccc(N(Cc2cccc(F)c2)C(=O)Nc2nc3ccccc3s2)cc1)C(=O)O

Activity [8]: > 38.8%
SMILES: CC(C)(Oc1ccc(N(CC2CCCCC2)C(=O)Nc2nc3ccccc3s2)cc1)C(=O)O

Reference: ChEMBL document CHEMBL3124776, “Discovery of novel urea derivatives as dual-target hypoglycemic agents that activate glucokinase and PPARγ” (Eur J Med Chem, 2014)
